# In ChEMBL document CHEMBL1201862, “PubChem BioAssay data set” (2004):
#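 48-hour exposure; five concentrations; linearly interpolated endpoints. At the GI50, growth is halved.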 Active and inactive are the calls of the source. No stated cut-off is given here; in the data, active = GI50 up to about 1.1 µM and inactive = higher.
# Assays:
# Assay in all cases: inhibition of tumour cell growth, NCI panel, 48 h
# HOP-92 = test system: HOP-92
# OVCAR-4 = test system: OVCAR-4
# NCI-H460 = test system: NCI-H460
# COLO 205 = test system: COLO 205
# SK-MEL-28 = test system: SK-MEL-28
# ACHN = test system: ACHN
# MDA-MB-435 = test system: MDA-MB-435
# T47D = test system: T47D
# OVCAR-3 = test system: OVCAR-3
# NCI/ADR-RES = test system: NCI/ADR-RES
# UACC-257 = test system: UACC-257
# SN12C = test system: SN12C
# MOLT-4 = test system: MOLT-4
# SF-539 = test system: SF-539
# HCT-15 = test system: HCT-15
# SF-295 = test system: SF-295
# IGROV-1 = test system: IGROV-1
# Hs-578T = test system: Hs-578T
# MDA-N = test system: MDA-N
# DU-145 = test system: DU-145
# HOP-62 = test system: HOP-62
# HCT-116 = test system: HCT-116
# 786-0 = test system: 786-0
# RXF 393 = test system: RXF 393
# NCI-H23 = test system: NCI-H23
# LOX IMVI = test system: LOX IMVI
# K562 = test system: K562
# UACC-62 = test system: UACC-62
# SK-OV-3 = test system: SK-OV-3
# OVCAR-5 = test system: OVCAR-5
# Malme-3M = test system: Malme-3M
# NCI-H522 = test system: NCI-H522
# NCI-H226 = test system: NCI-H226
# SF-268 = test system: SF-268
# MCF7 = test system: MCF7
# HCC 2998 = test system: HCC 2998
# UO-31 = test system: UO-31
# TK-10 = test system: TK-10
# HT-29 = test system: HT-29
# SK-MEL-2 = test system: SK-MEL-2
# A498 = test system: A498
# CAKI-1 = test system: CAKI-1
# RPMI-8226 = test system: RPMI-8226
# A549 = test system: A549
# KM12 = test system: KM12
# U-251 = test system: U-251
# OVCAR-8 = test system: OVCAR-8
# MDA-MB-231 = test system: MDA-MB-231
# M14 = test system: M14
# PC-3 = test system: PC-3
# HL-60 = test system: HL-60
# EKVX = test system: EKVX
# SNB-19 = test system: SNB-19
# CCRF-CEM = test system: CCRF-CEM
# SK-MEL-5 = test system: SK-MEL-5
# SR = test system: SR
# BT-549 = test system: BT-549
# SW-620 = test system: SW-620
# SNB-75 = test system: SNB-75
compound,measurement,setting,value
Cc1ccc(C(=O)/C=C2\Nc3cccnc3NC2=O)cc1,GI50,HOP-92,> 100 µM (inactive)
same,GI50,OVCAR-4,> 100 µM (inactive)
same,GI50,NCI-H460,> 100 µM (inactive)
same,GI50,COLO 205,> 100 µM (inactive)
same,GI50,SK-MEL-28,> 100 µM (inactive)
same,GI50,ACHN,> 100 µM (inactive)
same,GI50,MDA-MB-435,> 100 µM (inactive)
same,GI50,T47D,> 100 µM (inactive)
same,GI50,OVCAR-3,> 100 µM (inactive)
same,GI50,NCI/ADR-RES,> 100 µM (inactive)
same,GI50,UACC-257,> 100 µM (inactive)
same,GI50,SN12C,> 100 µM (inactive)
same,GI50,MOLT-4,> 100 µM (inactive)
same,GI50,SF-539,60.4 µM (inactive)
same,GI50,HCT-15,> 100 µM
same,GI50,SF-295,> 100 µM (inactive)
same,GI50,IGROV-1,> 100 µM (inactive)
same,GI50,Hs-578T,37.8 µM (inactive)
same,GI50,MDA-N,> 100 µM (inactive)
same,GI50,DU-145,> 100 µM (inactive)
same,GI50,HOP-62,33.6 µM (inactive)
same,GI50,HCT-116,> 100 µM (inactive)
same,GI50,786-0,40.2 µM (inactive)
same,GI50,RXF 393,21.7 µM (inactive)
same,GI50,NCI-H23,> 100 µM (inactive)
same,GI50,LOX IMVI,> 100 µM (inactive)
same,GI50,K562,> 100 µM (inactive)
same,GI50,UACC-62,> 100 µM (inactive)
same,GI50,SK-OV-3,> 100 µM (inactive)
same,GI50,OVCAR-5,> 100 µM (inactive)
same,GI50,Malme-3M,95.9 µM (inactive)
same,GI50,NCI-H522,16.6 µM (inactive)
same,GI50,NCI-H226,> 100 µM (inactive)
same,GI50,SF-268,55.8 µM (inactive)
same,GI50,MCF7,> 100 µM (inactive)
same,GI50,HCC 2998,> 100 µM (inactive)
same,GI50,UO-31,> 100 µM (inactive)
same,GI50,TK-10,> 100 µM (inactive)
same,GI50,HT-29,> 100 µM (inactive)
same,GI50,SK-MEL-2,> 100 µM (inactive)
same,GI50,A498,> 100 µM (inactive)
same,GI50,CAKI-1,> 100 µM (inactive)
same,GI50,RPMI-8226,> 100 µM (inactive)
same,GI50,A549,> 100 µM (inactive)
same,GI50,KM12,> 100 µM (inactive)
same,GI50,U-251,39.5 µM (inactive)
same,GI50,OVCAR-8,51.2 µM (inactive)
same,GI50,MDA-MB-231,30.8 µM (inactive)
same,GI50,M14,> 100 µM (inactive)
same,GI50,PC-3,> 100 µM (inactive)
same,GI50,HL-60,> 100 µM (inactive)
same,GI50,EKVX,> 100 µM (inactive)
same,GI50,SNB-19,> 100 µM (inactive)
same,GI50,CCRF-CEM,> 100 µM (inactive)
same,GI50,SK-MEL-5,> 100 µM (inactive)
same,GI50,SR,> 100 µM (inactive)
same,GI50,BT-549,> 100 µM (inactive)
COC(OC)C(O)C1OC=CC1n1cnc2c(N)ncnc21 (centres undefined),GI50,HOP-92,> 100 µM (inactive)
same,GI50,OVCAR-4,> 100 µM (inactive)
same,GI50,NCI-H460,> 100 µM (inactive)
same,GI50,COLO 205,> 100 µM (inactive)
same,GI50,SK-MEL-28,> 100 µM (inactive)
same,GI50,ACHN,> 100 µM (inactive)
same,GI50,MDA-MB-435,> 100 µM (inactive)
same,GI50,T47D,> 100 µM (inactive)
same,GI50,OVCAR-3,> 100 µM (inactive)
same,GI50,NCI/ADR-RES,> 100 µM (inactive)
same,GI50,UACC-257,> 100 µM (inactive)
same,GI50,SN12C,> 100 µM (inactive)
same,GI50,MOLT-4,> 100 µM (inactive)
same,GI50,SF-539,> 100 µM (inactive)
same,GI50,HCT-15,> 100 µM
same,GI50,SF-295,> 100 µM (inactive)
same,GI50,IGROV-1,> 100 µM (inactive)
same,GI50,SW-620,> 100 µM (inactive)
same,GI50,Hs-578T,> 100 µM (inactive)
same,GI50,MDA-N,> 100 µM (inactive)
same,GI50,DU-145,> 100 µM (inactive)
same,GI50,HOP-62,> 100 µM (inactive)
same,GI50,HCT-116,> 100 µM (inactive)
same,GI50,786-0,> 100 µM (inactive)
same,GI50,RXF 393,13 µM (inactive)
same,GI50,NCI-H23,> 100 µM (inactive)
same,GI50,LOX IMVI,> 100 µM (inactive)
same,GI50,K562,> 100 µM (inactive)
same,GI50,UACC-62,> 100 µM (inactive)
same,GI50,SK-OV-3,> 100 µM (inactive)
same,GI50,NCI-H226,> 100 µM (inactive)
same,GI50,SF-268,> 100 µM (inactive)
same,GI50,MCF7,> 100 µM (inactive)
same,GI50,HCC 2998,> 100 µM (inactive)
same,GI50,UO-31,0.792 µM (active)
same,GI50,TK-10,> 100 µM (inactive)
same,GI50,HT-29,> 100 µM (inactive)
same,GI50,SK-MEL-2,> 100 µM (inactive)
same,GI50,A498,> 100 µM (inactive)
same,GI50,CAKI-1,> 100 µM (inactive)
same,GI50,RPMI-8226,> 100 µM (inactive)
same,GI50,KM12,> 100 µM (inactive)
same,GI50,U-251,> 100 µM (inactive)
same,GI50,MDA-MB-231,> 100 µM (inactive)
same,GI50,SNB-75,18.3 µM (inactive)
same,GI50,PC-3,> 100 µM (inactive)
same,GI50,EKVX,> 100 µM (inactive)
same,GI50,CCRF-CEM,> 100 µM (inactive)
same,GI50,SK-MEL-5,> 100 µM (inactive)
same,GI50,SR,> 100 µM (inactive)
same,GI50,BT-549,> 100 µM (inactive)
O=c1ccn([C@@H]2C[C@H]2CO)c(=O)[nH]1,GI50,HOP-92,> 100 µM (inactive)
same,GI50,OVCAR-4,> 100 µM (inactive)
same,GI50,NCI-H460,> 100 µM (inactive)
same,GI50,COLO 205,> 100 µM (inactive)
same,GI50,SK-MEL-28,> 100 µM (inactive)
same,GI50,ACHN,> 100 µM (inactive)
same,GI50,MDA-MB-435,> 100 µM (inactive)
same,GI50,T47D,> 100 µM (inactive)
same,GI50,NCI/ADR-RES,> 100 µM (inactive)
same,GI50,UACC-257,> 100 µM (inactive)
same,GI50,SN12C,> 100 µM (inactive)
same,GI50,MOLT-4,> 100 µM (inactive)
same,GI50,SF-539,> 100 µM (inactive)
same,GI50,HCT-15,> 100 µM
same,GI50,IGROV-1,> 100 µM (inactive)
same,GI50,SW-620,> 100 µM (inactive)
same,GI50,Hs-578T,> 100 µM (inactive)
same,GI50,MDA-N,> 100 µM (inactive)
same,GI50,DU-145,> 100 µM (inactive)
same,GI50,HOP-62,> 100 µM (inactive)
same,GI50,HCT-116,> 100 µM (inactive)
same,GI50,786-0,> 100 µM (inactive)
same,GI50,RXF 393,> 100 µM (inactive)
same,GI50,NCI-H23,> 100 µM (inactive)
same,GI50,LOX IMVI,> 100 µM (inactive)
same,GI50,K562,> 100 µM (inactive)
same,GI50,UACC-62,> 100 µM (inactive)
same,GI50,OVCAR-5,> 100 µM (inactive)
same,GI50,Malme-3M,> 100 µM (inactive)
same,GI50,NCI-H522,> 100 µM (inactive)
same,GI50,NCI-H226,> 100 µM (inactive)
same,GI50,SF-268,> 100 µM (inactive)
same,GI50,MCF7,> 100 µM (inactive)
same,GI50,HCC 2998,> 100 µM (inactive)
same,GI50,UO-31,> 100 µM (inactive)
same,GI50,TK-10,> 100 µM (inactive)
same,GI50,HT-29,> 100 µM (inactive)
same,GI50,SK-MEL-2,> 100 µM (inactive)
same,GI50,A498,> 100 µM (inactive)
same,GI50,CAKI-1,> 100 µM (inactive)
same,GI50,RPMI-8226,> 100 µM (inactive)
same,GI50,A549,> 100 µM (inactive)
same,GI50,KM12,> 100 µM (inactive)
same,GI50,U-251,> 100 µM (inactive)
same,GI50,OVCAR-8,> 100 µM (inactive)
same,GI50,MDA-MB-231,> 100 µM (inactive)
same,GI50,SNB-75,> 100 µM (inactive)
same,GI50,M14,> 100 µM (inactive)
same,GI50,PC-3,> 100 µM (inactive)
same,GI50,HL-60,> 100 µM (inactive)
same,GI50,EKVX,> 100 µM (inactive)
same,GI50,SNB-19,> 100 µM (inactive)
same,GI50,CCRF-CEM,> 100 µM (inactive)
same,GI50,SK-MEL-5,> 100 µM (inactive)
same,GI50,SR,> 100 µM (inactive)
same,GI50,BT-549,> 100 µM (inactive)
